Experimental findings from ChEMBL document CHEMBL5649167, “The SUV4-20 inhibitor A-196 verifies a role for epigenetics in genomic integrity” (Nat Chem Biol, 2017) are described below.

For test [1], the target named is PRMT5/MEP50 complex (Homo sapiens) (UniProt O14744+Q9BQA1). Nature of the test: Inhibition of PRMT5/MEP50 complex (unknown origin) using Biotin-tagged H4K20me1 and [3H-SAM] as substrate at 1 to 10 uM incubated for 2 hrs by scintillation proximity assay. The class given is protein-complex assay. The following applies: dose 1-10 µM.
In test [2] the target is Protein arginine N-methyltransferase 8 (Homo sapiens) (UniProt Q9NR22). Nature of the test: Inhibition of PRMT8 (unknown origin) using Biotin-tagged H4K20me1 and [3H-SAM] as substrate at 1 to 10 uM incubated for 2 hrs by scintillation proximity assay. The conditions noted are these: dose 1-10 µM. Background: Scintillation proximity formats need no separation of bound from free tracer.

Test [3] deals with N-lysine methyltransferase KMT5A (Homo sapiens) (UniProt Q9NQR1). Nature of the test: Inhibition of SETD8 (unknown origin) using Biotin-tagged H4K20me1 and [3H-SAM] as substrate at 1 to 10 uM incubated for 2 hrs by scintillation proximity assay. The conditions noted are these: dose 1-10 µM.
Test [4] has as its target Histone-lysine N-methyltransferase SUV39H2 (Homo sapiens) (UniProt Q9H5I1). Nature of the test: Inhibition of SUV39H2 (unknown origin) using Biotin-tagged H4K20me1 and [3H-SAM] as substrate at 1 to 10 uM incubated for 2 hrs by scintillation proximity assay. The conditions noted are these: dose 1-10 µM.
Test [5] deals with Histone-lysine N-methyltransferase ASH1L (Homo sapiens) (UniProt Q9NR48). Nature of the test: Inhibition of ASH1L (unknown origin) at 1 to 10 uM incubated for 1 hrs by scintillation proximity assay. The following applies: dose 1-10 µM.
The species named for test [6] is Homo sapiens. The test is described as follows: Inhibition of DNMT3B/3L (unknown origin) at 1 to 10 uM incubated for 1 hrs by scintillation proximity assay. The conditions noted are these: dose 1-10 µM.
Test [7] concerns the target Histone-lysine N-methyltransferase KMT5B (Homo sapiens) (UniProt Q4FZB7). The test is described as follows: Binding affinity to recombinant human 6His-(Tev)-G-SUV420H1 (69 to 335 residues) assessed as increase thermal stability by measuring change in melting temperature at 50 uM in the presence of SAM by thermal shift assay.
Test [8] deals with U2OS. Nature of the test: Inhibition of H4K20me2 in human U2OS cells at 3 uM incubated for 48 hrs by Western blotting analysis. The class given is functional, cell-based. On the technique in general: In western blotting, separated proteins are transferred to a membrane and probed.
For another test, the system named is LNCaP. Nature of the test: Cytotoxicity against human LNCaP cells assessed as cell viability at 1.5 to 100 uM incubated after 72 hrs. The class given is functional, cell-based. The conditions noted are these: dose 1.5-100 µM.
Test [9] has as its system HL-60. Nature of the test: Cytotoxicity against human HL-60 cells assessed as cell viability at 1.5 to 100 uM incubated after 72 hrs. The class given is functional, cell-based. The following applies: dose 1.5-100 µM.
The test system of test [10] is U2OS. Nature of the test: Cytotoxicity against human U2OS cells assessed as cell viability upto 12.5 uM incubated for 48 hrs. The class given is functional, cell-based.
Test [11] deals with HL-60. The test is described as follows: Cytotoxicity against human HL-60 cells assessed as cell viability upto 12.5 uM incubated for 48 hrs. The class given is functional, cell-based.
Test [12] concerns U2OS. The test is described as follows: Antiproliferative activity against human U2OS cells assessed as cell population doubling at 1 uM incubated for 80 days. The class given is functional, cell-based. The conditions noted are these: time 80.0 day.
Another test relates to PC-3. The test is described as follows: Antiproliferative activity against human PC-3 cells assessed as cell population doubling at 1 uM incubated for 80 days. The class given is functional, cell-based. The conditions noted are these: time 80.0 day.
The test system of test [13] is U2OS. Nature of the test: Antiproliferative activity against human U2OS cells assessed as inhibition in H4K20me2 expression level 21 doublings by Western blot analysis. The class given is functional, cell-based.
In test [14] the test system is U2OS. Nature of the test: Induction of DNA repair in human U2OS cells expressing I-SceI reporter assessed as substantially inhibition in NHEJ-mediated repair at 1 uM by flow cytometry analysis. The class given is functional, cell-based. On the technique in general: In flow cytometry, cells or beads pass a laser one at a time.
In test [15] the test system is U2OS. The test is described as follows: Induction of DNA repair in human U2OS cells expressing I-SceI reporter assessed as change in HDR-mediated repair at 1 uM by flow cytometry analysis. The class given is functional, cell-based.
Test [16] concerns U2OS. The test is described as follows: Inhibition of colony formation in human U2OS cells at 1 uM incubated for 48 hrs in the presence of olaparib by cell clonogenic assay. The class given is functional, cell-based.
For test [17], the system named is U2OS. Nature of the test: Inhibition of colony formation in human U2OS cells at 1 uM incubated for 48 hrs in the presence of hydroxyurea by cell clonogenic assay. The class given is functional, cell-based.
For test [18], the target named is Insulin receptor (Homo sapiens) (UniProt P06213). The test is described as follows: Inhibition of human IRK at 10 uM relative to control.
For test [19], the target named is Tyrosine-protein kinase ABL1 (Homo sapiens) (UniProt P00519). Nature of the test: Inhibition of human Abl at 10 uM relative to control.
The target in test [20] is Mitogen-activated protein kinase 1 (Homo sapiens) (UniProt P28482). Nature of the test: Inhibition of human ERK2 at 10 uM relative to control.
Test [21] deals with RAC-alpha serine/threonine-protein kinase (Homo sapiens) (UniProt P31749). Nature of the test: Inhibition of human Akt1 at 10 uM relative to control.
Test [22] concerns the target Serine/threonine-protein kinase TAO2 (Homo sapiens) (UniProt Q9UL54). Nature of the test: Inhibition of human TAOK2 at 10 uM relative to control.
Test [23] addresses Proto-oncogene tyrosine-protein kinase Src (Homo sapiens) (UniProt P12931). The test is described as follows: Inhibition of human Src at 10 uM relative to control.
Test [24] concerns the target Serine/threonine-protein kinase 26 (Homo sapiens) (UniProt Q9P289). The test is described as follows: Inhibition of human MST4 at 10 uM relative to control.
The target of test [25] is Serine/threonine-protein kinase pim-2 (Homo sapiens) (UniProt Q9P1W9). Nature of the test: Inhibition of human Pim2 at 10 uM relative to control.
Test [26] deals with Protein kinase C beta type (Homo sapiens) (UniProt P05771). Nature of the test: Inhibition of human PKCbeta 2 at 10 uM relative to control.
Test [27] deals with Mitogen-activated protein kinase 14 (Homo sapiens) (UniProt Q16539). The test is described as follows: Inhibition of human p38alpha at 10 uM relative to control.
Test [28] deals with Serine/threonine-protein kinase PAK 4 (Homo sapiens) (UniProt O96013). The test is described as follows: Inhibition of human PAK4 at 10 uM relative to control.
Test [29] concerns the target Serine/threonine-protein kinase PLK1 (Homo sapiens) (UniProt P53350). Nature of the test: Inhibition of human PLK1 at 10 uM relative to control.
In test [30] the target is Endothelin-1 receptor (Homo sapiens) (UniProt P25101). Nature of the test: Inhibition of human ETA at 10 uM relative to control.
Test [31] addresses Sodium-dependent serotonin transporter (Homo sapiens) (UniProt P31645). Nature of the test: Inhibition of human SERT expressed in stable HEK cells at 10 uM relative to control. The class given is cell-based.
Test [32] deals with U2OS. Nature of the test: Inhibition of H4K20me2 in human U2OS cells assessed as change in methylation level at 10 uM incubated for 48 hrs by Western blotting analysis. The class given is functional, cell-based.
Test [33] has as its target Neurotensin receptor type 1 (Homo sapiens) (UniProt P30989). Nature of the test: Inhibition of human NTS1 at 10 uM relative to control.
Test [34] is filed under the species Homo sapiens. Nature of the test: Inhibition of human CB1 at 10 uM relative to control.
Test [35] concerns the target Sigma non-opioid intracellular receptor 1 (Homo sapiens) (UniProt Q99720). Nature of the test: Inhibition of human Sigma non-opioid intracellular receptor 1 at 10 uM relative to control. The class given is cell-based.
The target of test [36] is 5-hydroxytryptamine receptor 7 (Homo sapiens) (UniProt P34969). The test is described as follows: Inhibition of human 5-HT7 in stable HEK cells at 10 uM relative to control. The class given is cell-based.
The species named for test [37] is Homo sapiens. The test is described as follows: Inhibition of human GABAA at 10 uM relative to control.

The source made the active and inactive calls. No cut-off for these calls is given here.

Sequence of N-lysine methyltransferase KMT5A (Homo sapiens) (Q9NQR1 whole entry): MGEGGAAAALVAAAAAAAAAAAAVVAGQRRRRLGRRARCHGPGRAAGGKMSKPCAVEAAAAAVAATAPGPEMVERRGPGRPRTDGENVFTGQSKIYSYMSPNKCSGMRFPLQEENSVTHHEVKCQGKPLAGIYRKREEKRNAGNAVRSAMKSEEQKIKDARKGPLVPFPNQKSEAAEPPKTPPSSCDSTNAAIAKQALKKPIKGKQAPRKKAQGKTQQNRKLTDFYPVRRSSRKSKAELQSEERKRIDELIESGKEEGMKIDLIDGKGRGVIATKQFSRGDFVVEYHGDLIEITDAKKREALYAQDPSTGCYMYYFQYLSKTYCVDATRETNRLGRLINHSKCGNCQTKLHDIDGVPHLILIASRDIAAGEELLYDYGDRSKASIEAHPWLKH
Sequence of Sigma non-opioid intracellular receptor 1 (Homo sapiens) (Q99720 whole entry): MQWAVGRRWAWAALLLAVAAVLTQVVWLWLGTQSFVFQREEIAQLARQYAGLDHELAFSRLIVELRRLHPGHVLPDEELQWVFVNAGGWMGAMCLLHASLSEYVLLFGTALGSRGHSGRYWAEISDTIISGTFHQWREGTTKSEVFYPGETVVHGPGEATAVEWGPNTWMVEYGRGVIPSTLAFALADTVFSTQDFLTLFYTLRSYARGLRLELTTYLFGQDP
Sequence of RAC-alpha serine/threonine-protein kinase (Homo sapiens) (P31749 whole entry): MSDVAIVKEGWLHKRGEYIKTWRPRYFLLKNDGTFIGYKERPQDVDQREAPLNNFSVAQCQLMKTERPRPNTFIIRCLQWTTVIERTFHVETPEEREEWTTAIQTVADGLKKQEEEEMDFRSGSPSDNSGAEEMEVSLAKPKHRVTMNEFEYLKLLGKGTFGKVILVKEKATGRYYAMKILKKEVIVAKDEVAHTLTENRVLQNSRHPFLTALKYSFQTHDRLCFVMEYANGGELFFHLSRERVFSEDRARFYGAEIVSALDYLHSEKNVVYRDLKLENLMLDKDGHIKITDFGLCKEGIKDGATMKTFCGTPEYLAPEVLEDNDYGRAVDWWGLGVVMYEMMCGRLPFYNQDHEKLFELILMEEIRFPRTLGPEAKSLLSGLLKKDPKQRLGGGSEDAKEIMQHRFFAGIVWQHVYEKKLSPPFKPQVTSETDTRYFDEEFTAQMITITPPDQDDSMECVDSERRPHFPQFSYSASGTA
Sequence of Insulin receptor (Homo sapiens) (P06213 28-758 limits assumed): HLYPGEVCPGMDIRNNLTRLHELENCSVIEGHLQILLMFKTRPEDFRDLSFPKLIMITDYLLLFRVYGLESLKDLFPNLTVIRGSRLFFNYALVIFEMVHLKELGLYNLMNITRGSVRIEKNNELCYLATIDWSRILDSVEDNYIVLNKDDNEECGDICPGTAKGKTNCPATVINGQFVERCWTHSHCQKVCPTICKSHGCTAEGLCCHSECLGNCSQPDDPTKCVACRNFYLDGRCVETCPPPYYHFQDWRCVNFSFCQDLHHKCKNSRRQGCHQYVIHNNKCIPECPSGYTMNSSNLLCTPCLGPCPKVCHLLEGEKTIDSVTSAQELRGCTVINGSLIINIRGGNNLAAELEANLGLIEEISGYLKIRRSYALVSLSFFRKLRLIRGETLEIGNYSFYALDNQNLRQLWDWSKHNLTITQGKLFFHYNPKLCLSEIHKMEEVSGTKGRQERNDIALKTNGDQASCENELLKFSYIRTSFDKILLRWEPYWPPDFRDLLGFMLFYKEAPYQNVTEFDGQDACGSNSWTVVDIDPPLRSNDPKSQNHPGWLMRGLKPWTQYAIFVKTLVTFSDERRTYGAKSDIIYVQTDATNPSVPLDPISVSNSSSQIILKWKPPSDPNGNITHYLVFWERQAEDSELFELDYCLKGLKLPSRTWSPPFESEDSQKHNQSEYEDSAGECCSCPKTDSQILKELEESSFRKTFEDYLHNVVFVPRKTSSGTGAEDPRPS
Sequence of Insulin receptor (Homo sapiens) (P06213 763-1382 limits assumed): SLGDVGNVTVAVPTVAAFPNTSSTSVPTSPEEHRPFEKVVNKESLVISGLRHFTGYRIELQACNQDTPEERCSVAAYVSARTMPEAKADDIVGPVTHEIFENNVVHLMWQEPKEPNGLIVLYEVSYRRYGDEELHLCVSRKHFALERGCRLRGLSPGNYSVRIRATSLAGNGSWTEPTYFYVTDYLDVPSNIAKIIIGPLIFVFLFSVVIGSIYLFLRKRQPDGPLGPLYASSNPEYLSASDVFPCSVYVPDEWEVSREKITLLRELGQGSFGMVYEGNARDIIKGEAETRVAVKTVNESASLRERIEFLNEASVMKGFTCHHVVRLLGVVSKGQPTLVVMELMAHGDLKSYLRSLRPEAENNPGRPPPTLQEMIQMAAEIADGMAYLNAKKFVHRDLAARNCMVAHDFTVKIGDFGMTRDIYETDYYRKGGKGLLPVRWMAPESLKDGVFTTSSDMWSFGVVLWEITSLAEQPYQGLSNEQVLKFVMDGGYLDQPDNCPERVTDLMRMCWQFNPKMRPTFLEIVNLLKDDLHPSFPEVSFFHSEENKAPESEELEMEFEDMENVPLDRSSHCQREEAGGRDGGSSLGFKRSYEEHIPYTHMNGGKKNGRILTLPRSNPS
Sequence of Neurotensin receptor type 1 (Homo sapiens) (P30989 whole entry): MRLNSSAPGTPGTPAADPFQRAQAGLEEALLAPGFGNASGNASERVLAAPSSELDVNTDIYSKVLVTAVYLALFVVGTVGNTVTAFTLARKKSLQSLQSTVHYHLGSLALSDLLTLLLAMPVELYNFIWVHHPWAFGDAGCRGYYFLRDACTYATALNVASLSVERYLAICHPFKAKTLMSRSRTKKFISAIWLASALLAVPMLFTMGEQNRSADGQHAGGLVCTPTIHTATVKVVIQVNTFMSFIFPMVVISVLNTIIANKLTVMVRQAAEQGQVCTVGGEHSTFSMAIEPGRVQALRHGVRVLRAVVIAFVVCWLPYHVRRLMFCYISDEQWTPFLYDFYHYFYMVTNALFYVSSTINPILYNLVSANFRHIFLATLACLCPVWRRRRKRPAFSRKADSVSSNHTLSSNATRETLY
Sequence of Serine/threonine-protein kinase PAK 4 (Homo sapiens) (O96013 whole entry, looked up): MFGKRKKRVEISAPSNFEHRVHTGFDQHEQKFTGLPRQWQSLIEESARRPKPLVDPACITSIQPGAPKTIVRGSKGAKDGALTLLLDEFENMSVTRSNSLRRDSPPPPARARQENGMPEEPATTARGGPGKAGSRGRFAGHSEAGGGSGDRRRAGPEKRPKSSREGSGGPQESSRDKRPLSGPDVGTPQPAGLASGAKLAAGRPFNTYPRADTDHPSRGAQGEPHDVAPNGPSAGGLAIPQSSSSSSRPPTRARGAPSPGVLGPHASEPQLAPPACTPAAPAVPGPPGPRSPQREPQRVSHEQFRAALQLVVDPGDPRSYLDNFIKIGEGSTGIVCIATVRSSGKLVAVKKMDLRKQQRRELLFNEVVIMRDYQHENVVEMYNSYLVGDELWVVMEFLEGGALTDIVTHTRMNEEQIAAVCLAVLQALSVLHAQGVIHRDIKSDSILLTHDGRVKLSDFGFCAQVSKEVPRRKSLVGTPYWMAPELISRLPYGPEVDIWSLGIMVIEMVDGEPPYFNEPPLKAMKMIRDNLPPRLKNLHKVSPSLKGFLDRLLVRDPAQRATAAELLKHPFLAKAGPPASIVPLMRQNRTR
Sequence of Proto-oncogene tyrosine-protein kinase Src (Homo sapiens) (P12931 2-536 limits assumed): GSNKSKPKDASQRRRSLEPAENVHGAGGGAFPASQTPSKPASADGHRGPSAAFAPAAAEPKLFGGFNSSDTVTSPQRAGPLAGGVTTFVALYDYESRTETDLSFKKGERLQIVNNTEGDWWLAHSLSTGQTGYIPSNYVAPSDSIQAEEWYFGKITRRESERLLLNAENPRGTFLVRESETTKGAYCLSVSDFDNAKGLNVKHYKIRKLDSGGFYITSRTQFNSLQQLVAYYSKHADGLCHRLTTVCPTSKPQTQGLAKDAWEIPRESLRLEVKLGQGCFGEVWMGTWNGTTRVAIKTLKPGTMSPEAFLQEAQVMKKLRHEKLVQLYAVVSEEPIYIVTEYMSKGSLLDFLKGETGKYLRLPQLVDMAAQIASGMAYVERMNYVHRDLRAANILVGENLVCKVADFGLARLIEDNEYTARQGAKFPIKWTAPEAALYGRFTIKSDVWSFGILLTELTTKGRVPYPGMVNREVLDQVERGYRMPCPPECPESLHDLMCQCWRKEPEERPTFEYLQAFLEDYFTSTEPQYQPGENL
Sequence of Protein kinase C beta type (Homo sapiens) (P05771 2-671 limits assumed): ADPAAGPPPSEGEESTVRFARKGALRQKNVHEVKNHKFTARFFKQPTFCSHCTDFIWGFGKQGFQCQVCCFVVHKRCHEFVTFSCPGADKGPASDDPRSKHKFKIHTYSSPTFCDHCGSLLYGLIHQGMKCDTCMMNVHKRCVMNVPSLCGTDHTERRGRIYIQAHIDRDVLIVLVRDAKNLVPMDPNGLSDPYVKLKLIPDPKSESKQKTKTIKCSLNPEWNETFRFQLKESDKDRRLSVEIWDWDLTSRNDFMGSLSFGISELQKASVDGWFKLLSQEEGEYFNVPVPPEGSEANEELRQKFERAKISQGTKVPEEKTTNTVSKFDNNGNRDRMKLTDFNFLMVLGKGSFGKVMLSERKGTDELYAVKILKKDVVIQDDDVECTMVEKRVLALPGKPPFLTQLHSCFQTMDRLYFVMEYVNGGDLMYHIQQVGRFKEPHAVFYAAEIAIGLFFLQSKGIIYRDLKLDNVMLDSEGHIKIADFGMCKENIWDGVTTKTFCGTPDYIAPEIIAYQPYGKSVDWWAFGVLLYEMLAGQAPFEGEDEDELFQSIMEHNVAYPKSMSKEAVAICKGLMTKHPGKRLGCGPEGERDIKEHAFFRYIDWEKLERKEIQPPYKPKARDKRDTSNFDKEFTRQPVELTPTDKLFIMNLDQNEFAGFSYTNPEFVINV
Sequence of Serine/threonine-protein kinase pim-2 (Homo sapiens) (Q9P1W9 whole entry, looked up): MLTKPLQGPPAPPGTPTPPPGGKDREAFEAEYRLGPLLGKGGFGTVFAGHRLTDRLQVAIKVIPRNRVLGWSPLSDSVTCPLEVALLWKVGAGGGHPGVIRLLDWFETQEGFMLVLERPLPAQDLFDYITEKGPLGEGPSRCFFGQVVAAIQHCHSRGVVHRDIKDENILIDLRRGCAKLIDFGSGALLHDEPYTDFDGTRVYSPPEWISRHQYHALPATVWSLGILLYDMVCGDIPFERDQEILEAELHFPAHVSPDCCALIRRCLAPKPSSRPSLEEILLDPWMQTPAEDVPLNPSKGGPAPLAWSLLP

As usually defined, the inhibition is the drop in the measured response relative to a control, in per cent. As a reminder, the ΔTm is the change in melting temperature against a reference sample. With `Clc1cc2c(NC3CCCC3)nnc(-c3ccncc3)c2cc1Cl`, the inhibition entry (in [1]; in test [2]; in test [3]; in test [4]; in [5]; in the test listed under Homo sapiens [6]) was “inactive” in each case. Moreover, in test [7], the ΔTm came to 12.5 °C. Further, the inhibition entry with U2OS [8], in the test on U2OS [16] and with U2OS [17] was “Active” throughout. In addition, the result in the test with LNCaP, in the test with HL-60 [9], in the test with U2OS [10], in the test on HL-60 [11], in the test on U2OS [12] and in the test on PC-3 was Active. The result in the test with U2OS [13] and in the test with U2OS [14] was Active. Moreover, in the test on U2OS [15], the outcome was inactive. The inhibition in test [18] is 7%; in test [19], 2%; in test [20], 1%; in test [21], 0%; in [22], 0%; in test [23], -1%. The inhibition is -2% in test [24]; -3% in [25]; -3% in test [26]; -4% in test [27]; -8% in test [28]; -10% in test [29]. For the same compound, the figures for the inhibition in test [30] and in test [31] were -5% and -7%, respectively.
In the case of `O=C(c1nnc(NC2CCCC2)c2cc(Cl)c(Cl)cc12)N1CCC(O)CC1`, the outcome with U2OS [32] was inactive. Also, the inhibition in test [33] was 3%; in the test listed under Homo sapiens [34], 21%; in test [35] it was -7%; in [36], 19%; in the test listed under Homo sapiens [37] it was -7%.
